We go through 1 compound from patent publication US20100297109A1, “METHODS FOR INHIBITING FASCIN” (Cornell University, priority 2007, published 2010).

Experiment [1] deals with T1, villin (Homo sapiens, UniProt P09327).
T1 sequence (P09327 1-827): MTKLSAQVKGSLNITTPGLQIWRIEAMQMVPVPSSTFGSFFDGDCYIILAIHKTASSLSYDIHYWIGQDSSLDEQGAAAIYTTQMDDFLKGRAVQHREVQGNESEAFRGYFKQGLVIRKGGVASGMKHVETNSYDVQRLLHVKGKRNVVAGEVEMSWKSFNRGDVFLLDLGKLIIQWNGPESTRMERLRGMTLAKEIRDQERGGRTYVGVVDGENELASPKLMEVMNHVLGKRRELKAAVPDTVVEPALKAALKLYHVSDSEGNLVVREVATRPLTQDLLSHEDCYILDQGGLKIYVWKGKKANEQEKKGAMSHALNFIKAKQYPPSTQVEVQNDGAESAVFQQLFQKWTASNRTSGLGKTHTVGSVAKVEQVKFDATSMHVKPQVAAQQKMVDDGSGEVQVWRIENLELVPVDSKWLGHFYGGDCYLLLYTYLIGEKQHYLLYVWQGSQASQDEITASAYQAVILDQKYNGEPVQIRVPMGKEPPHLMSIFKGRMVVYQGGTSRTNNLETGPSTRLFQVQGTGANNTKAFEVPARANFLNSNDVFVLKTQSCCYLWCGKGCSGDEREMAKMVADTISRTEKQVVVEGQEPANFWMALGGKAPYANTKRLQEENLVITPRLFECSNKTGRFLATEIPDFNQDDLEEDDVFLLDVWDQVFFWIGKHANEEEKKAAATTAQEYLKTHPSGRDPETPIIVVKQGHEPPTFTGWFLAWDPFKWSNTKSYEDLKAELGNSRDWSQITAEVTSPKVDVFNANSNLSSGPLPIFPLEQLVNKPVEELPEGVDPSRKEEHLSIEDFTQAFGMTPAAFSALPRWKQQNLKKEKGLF
The experiment is described as follows: Migration of fascin siRNA-treated 4T1 cells rescued with villin. Format: cell-based. Set-up: expressed in transfected cells; host or cells: 4T1 mouse mammary tumor cells treated with fascin siRNA. The conditions noted are these: villin over-expression in fascin siRNA-treated 4T1 cells. The method, then: Boyden Chamber Cell Migration Assay. Cells (5×10^4) suspended in starvation medium were added to the upper chamber of an insert (6.5 mm diameter, 8-micrometer pore size, Becton Dickenson), and the insert was placed in a 24-well dish containing starvation medium with or without 10% FBS (Yang et al. 2005, Shan et al. 2006). When used, inhibitors were added to both chambers. Migration assays were carried out for 4-6 hours and cells were fixed with 3.7% formaldehyde. Cells were stained with crystal violet staining solution, and cells on the upper side of the insert were removed with a cotton swab. Three randomly selected fields (10× objectives) on the lower side of the insert were photographed, and the migrated cells were counted. The migration was expressed as either the average number of migrated cells in a field or as percentage of migrated cells in positive control. Percentage was calculated with the formula P=100×(M−Mnc)/Mpc, where P is the percentage of migrated cells, M is the number of migrated cells, Mnc is the number of migrated cells in negative controls, and Mpc is the number of migrated cells in positive controls.

Experiment [2] deals with T1, villin. The experiment is described as follows: Binding of macroketone to villin in vitro.
Experiment [3] relates to mouse embryonic fibroblast (MEF) cells. Briefly: Wound-healing assay, serum-induced migration of MEF cells. The conditions noted are these: 200 μM. Format: cell-based.
The target of experiment [4] is T2, fascin (Homo sapiens, UniProt Q16658). The experiment is described as follows: F-actin bundling assay, low-speed centrifugation (F-actin pelleting). It is filed as biochemical. Set-up: GST (N); made in house; host or cells: Escherichia coli BL21. The method, then:
Whole cell lysates from 4T1 mouse breast tumor cells were made. After preclearing the cell lysate with immobilized neutravidin biotin binding protein (Pierce, IL, USA) to remove biotin and avidin-binding proteins, the cell lysates were loaded to a column packed with the biotin-labeled macroketone (conjugated to neutravidin beads). A control column packed with free biotin and neutravidin beads was run side-by-side. After washing the column with 10 bed volumes of lysis buffer with 300 mM NaCl, the bound proteins were eluted with 0.1 M Glycine-HCl at pH 2.8 according to the manufacturer's instruction. […] Protein Expression and Purification. Recombinant GST-fascin fusion protein was produced in BL21 Escherichia coli. A 1-liter culture was grown to an A600 reading of 1.0 and then induced by addition of 0.3 mM isopropyl 1-thio-D-galactopyranoside (IPTG) for 12 hours at 25° C. Cells were flash frozen and then lysed by sonication in Tris-buffered saline. The supernatant was then incubated with glutathione-Sepharose for 2 h at 4° C. After extensive washing, GST-fascin was eluted and concentrated with a Centricon Plus-20 (Millipore). To remove the GST tag from the fusion protein, beads were incubated with thrombin overnight at 4° C. The supernatant was collected and concentrated. […] Actin bundling activity was measured by low speed centrifugation assay and fluorescence microscopy. […]

Experiment [5] addresses T2, fascin. The experiment is described as follows: Electron microscopy of fascin-induced F-actin bundles. Format: biochemical. Set-up: GST (N); made in house; host or cells: Escherichia coli BL21.

Each structure is given as a SMILES string.

Take `COC1C=CCCCCC(=O)CCC(C)=CC(C)C1O` (stereo not drawn) [macroketone, Migrastatin ketone]: the “sensitivity of rescued migration” value at villin [1] was “insensitive”. Further, the “binding to villin in vitro” value on villin [2] is on record as “did not bind”. The “effect on serum-induced migration (wound-healing)” value in experiment [3] is given as “had no effect”. Further, the “fascin-induced bundling of F-actin polymers” value at fascin [4] (with fascin) was “significantly decreased”. In addition, on fascin [4] (without fascin), the “formation of F-actin bundles, compound alone” value is given as “had no effect”. In addition, the “thickness of actin bundles” value on fascin [5] is given as “decreased the thickness of the bundles”.
